Structures are written as SMILES. Where two headings read alike, the source gives them in different places. Some results are limits rather than exact numbers.

Results on 14 molecules are retold here after patent US10766864B2, “Morphinan derivatives for the treatment of neuropathic pain” (Nektar Therapeutics, priority 2015, dated 2020).

The target of one series is mu opioid receptor (MOR) (Homo sapiens (Human), UniProt P35372). Put plainly: Competitive radioligand binding at MOR ([3H] Naloxone).
The target of another series is NMDA receptor. Put plainly: Competitive radioligand binding at NMDA receptor ([3H] MK801), rat forebrain membranes. The settings on record: 0.2 nM [3H] MK801, reflects free base activity.
In a further series the target is hMOR (Homo sapiens (Human), UniProt P35372). Description: cAMP accumulation assay (inhibition of forskolin-stimulated cAMP) in CHO-K1 cells stably expressing hMOR. It is filed as cell-based. How it is done: Mu opioid agonist activity for selected compounds was determined by the inhibition of forskolin-stimulated cAMP accumulation following MOR activation in CHO-K1 cells stably expressing the hMOR. […] IC50 values were calculated from […] analysis of the concentration-response curves using Graph Pad Prizm.

For series [1] the following is noted: Phase II clinical study; cited from earlier work.
In series [2] the test system is rat formalin paw model of persistent pain. Description: Automated formalin paw test, oral administration. It is filed as in vivo. The settings on record: at at least one dosage between 10 mg/kg and 300 mg/kg (inclusive), in the presence of 1-aminobenzotriazole. How it is done: The in vivo efficacy of selected compounds following oral administration was measured using the rat formalin model of persistent pain. Test compounds were administered 30-60 minutes prior to injection of 5% formalin to the hind-paw of rats and paw movements were measured using the automated Nociception Analyzer (ANA Instrument; University of California, San Diego) for 60 minutes post-formalin. In some experiments, rats were pre-treated 16-22 hours priors to the experiment with the cytochrome-P450 inhibitor, 1-aminobenzotriazole (ABT), to assess the activity of compounds in the absence of significant quantities of metabolites. ED50 values (mg/kg) were calculated from non-linear regression analyses of the cumulative number of flinches in Phase II (10-60 mins) versus dose of test compounds.
In the rat formalin paw model of persistent pain, compounds 83, 113, 114 and 115 (described in Examples 83, 113, 114 and 115, respectively) were tested. In each case, the oral efficacy of the compounds was measured in the presence and absence of the cytochrome CYP-450 inhibitor, 1-aminobenzotriazole.

The mark [3] stands for this setting: membranes from CHO-K1 cells expressing MOR, 2 nM [3H] Naloxone, reflects free base activity, read-out: MOR IC50.
[4] abbreviates: hMOR-expressing CHO-K1 cells, 10 μM forskolin, 60 minute incubation, read-out: MOR cAMP IC50.

As to `COCCOCCN1CC[C@]23CCCC[C@H]2[C@H]1Cc1ccc(OC)cc13` [Compound 12, 3-methoxy-17-[2-(2-methoxyethoxy)ethyl]-morphinan], the IC50 on mu opioid receptor (MOR) (setting [3]) was above 1000 nM; on NMDA receptor, above 10000 nM; at hMOR (setting [4]), above 1000 nM.
With `COCCOCCN1CC[C@]23CCCC[C@H]2[C@H]1Cc1ccc(O)cc13` [Compound 15, 17-[2-(2-methoxyethoxy)ethyl]morphinan-3-ol], the IC50 at mu opioid receptor (MOR) was 10 to 100 nM; on NMDA receptor it was above 10000 nM; against hMOR it was 10 to 100 nM.
Take `CN1CC[C@]23CCCC[C@H]2[C@H]1Cc1ccc(O)cc13` [levorphanol, 17-Methylmorphinan-3-ol]: in series [1], the “reduction of neuropathic pain” value was “effective in reducing neuropathic pain” and the side effects result was “severe dose-limiting side effects”.
Consider `COCCOCCN1CC[C@]23CCCC[C@H]2[C@H]1Cc1ccc(Nc2cccnc2)cc13` [Compound 83, 17-[2-(2-methoxyethoxy)ethyl]-N-(pyridin-3-yl)morphinan-3-amine], for which the IC50 on mu opioid receptor (MOR) was in the range of 100 to 1000 nM; at NMDA receptor it was 1000 to 10000 nM. For the same molecule, the “oral efficacy in Phase I and Phase II of the rat formalin paw model” value (“oral efficacy in Phase I and Phase II” below) in series [2] is “statistically significant efficacy”.
On to `CN1CC[C@]23CCCC[C@H]2[C@H]1Cc1ccc(N)cc13` [Compound 114, 3-amino-17-morphinan], for which the IC50 on mu opioid receptor (MOR), at NMDA receptor and on hMOR was 100 to 1000 nM throughout. Besides, the “oral efficacy in Phase I and Phase II” value in series [2] is “statistically significant efficacy”.
Turning to `COCCNC(=O)Oc1ccc2c(c1)[C@@]13CCCC[C@H]1[C@@H](C2)N(C)CC3` [Compound 18, 17-methylmorphinan-3-yl (2-methoxyethyl)carbamate], the IC50 on mu opioid receptor (MOR) lay within 100 to 1000 nM; at NMDA receptor, 1000 to 10000 nM; against hMOR, 100 to 1000 nM.
For the molecule `COc1ccccc1Nc1ccc2c(c1)[C@@]13CCCC[C@H]1[C@@H](C2)N(C)CC3` [Compound 30, N-(2-methoxyphenyl)-17-methylmorphinan-3-amine], the IC50 lay in the range of 10 to 100 nM at mu opioid receptor (MOR), 1000 to 10000 nM on NMDA receptor and 10 to 100 nM on hMOR.
With `CN1CC[C@]23CCCC[C@H]2[C@H]1Cc1ccc(Nc2nccs2)cc13` [Compound 46, 17-methyl-N-(1,3-thiazol-2-yl)morphinan-3-amine], the IC50 on mu opioid receptor (MOR) was 10 to 100 nM; at NMDA receptor, 100 to 1000 nM; against hMOR, 10 to 100 nM.
In the case of `COCCOc1ccc2c(c1)[C@]13CCN(C)[C@H](C2)[C@@H]1CCC(=O)C3` [Compound 7, 3-(2-methoxyethoxy)-17-methylmorphinan-6-one], the results for the IC50 at mu opioid receptor (MOR), at NMDA receptor and against hMOR were 100 to 1000 nM, above 10000 nM and 100 to 1000 nM, respectively.
On to `CN1CC[C@]23CCCC[C@H]2[C@H]1Cc1cc2sc(N)nc2cc13` [Compound 115, (4aR,5R,11bR)-14-methyl-2,3,4,4a,5,6-hexahydro-1H-5,11b-(epiminoethano)phenanthro[3,2-d]thiazol-9-amine], for which the IC50 on mu opioid receptor (MOR) (setting [3]) fell in the range of 10 to 100 nM; at NMDA receptor, 0.1 to 100 nM; on hMOR (setting [4]) it was 10 to 100 nM. Moreover, the “oral efficacy in Phase I and Phase II” value in series [2] is “statistically significant efficacy”.
In the case of `CN1CC[C@]23CCCC[C@H]2[C@H]1Cc1ccc(Nc2cccnc2)cc13` [Compound 43, 17-methyl-N-(pyridin-3-yl)morphinan-3-amine], the 50% inhibitory concentration (IC50) at mu opioid receptor (MOR) lay within 0.1 to 10 nM; at NMDA receptor, 0.1 to 100 nM; at hMOR, 0.1 to 10 nM.
As to `COCCN1CC[C@]23CCCC[C@H]2[C@H]1Cc1ccc(O)cc13` [Compound 113, 3-hydroxy-17-(2-methoxyethyl)morphinan], the IC50 fell in the range of 0.1 to 10 nM at mu opioid receptor (MOR), 100 to 1000 nM on NMDA receptor and 0.1 to 10 nM on hMOR. Also, the “oral efficacy in Phase I and Phase II” value in series [2] is “statistically significant efficacy”.
On to `CN1CC[C@]23CCCC[C@H]2[C@H]1Cc1ccc(-c2cn[nH]c2)cc13` [Compound 44, 17-methyl-3-(1H-pyrazol-4-yl)morphinan], for which the IC50 on mu opioid receptor (MOR) was 10 to 100 nM; at NMDA receptor, 100 to 1000 nM; against hMOR, 10 to 100 nM.
In the case of `COCCOCCOc1ccc(Nc2ccc3c(c2)[C@@]24CCCC[C@H]2[C@@H](C3)N(C)CC4)cc1` [Compound 36, N-{4-[2-(2-methoxyethoxy)ethoxy]phenyl}-17-methylmorphinan-3-amine], the IC50 at mu opioid receptor (MOR) (setting [3]) lay in the range of 10 to 100 nM; at NMDA receptor, 1000 to 10000 nM; on hMOR (setting [4]), 10 to 100 nM.
